How the values were obtained:
[1] = target: T1, recombinant human Lp-PLA2 (Homo sapiens, UniProt Q13093); assay: (1a) PED6 assay, recombinant human Lp-PLA2 (rhLp-PLA2); type: biochemical; conditions: Examples 1-167 and 413-430 were tested here, one experiment or average of multiple experiments, read-out: rhLp-PLA2 (pIC50) (converted)
T1 sequence (Q13093 22-441): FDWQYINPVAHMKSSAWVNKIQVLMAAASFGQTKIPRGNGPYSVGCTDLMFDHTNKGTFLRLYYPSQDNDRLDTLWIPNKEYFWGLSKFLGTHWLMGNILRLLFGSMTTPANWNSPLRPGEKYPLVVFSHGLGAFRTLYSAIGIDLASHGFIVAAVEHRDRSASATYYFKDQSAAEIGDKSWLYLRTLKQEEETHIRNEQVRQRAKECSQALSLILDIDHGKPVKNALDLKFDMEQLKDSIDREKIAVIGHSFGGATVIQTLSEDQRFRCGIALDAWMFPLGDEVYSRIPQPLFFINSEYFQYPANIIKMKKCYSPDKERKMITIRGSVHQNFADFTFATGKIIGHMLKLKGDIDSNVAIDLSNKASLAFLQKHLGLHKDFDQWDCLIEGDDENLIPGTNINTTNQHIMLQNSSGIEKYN
In short: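 PED6 (2 μM final after 1:1 addition of 4 μM stock) cleavage by rhLp-PLA2 (4 nM working solution) in 50 mM HEPES pH 7.4, 150 mM NaCl, 1 mM CHAPS; compounds preincubated with enzyme 30 minutes, reaction 20 min at room temperature. Fluorescence at ex 480/em 540; pIC50 from curve fit.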

Lp-PLA2 in human plasma = target: T2, Lp-PLA2 in human plasma (Homo sapiens, UniProt Q13093); assay: (3a) Lp-PLA2 human plasma Thio-PAF assay; type: biochemical; conditions: (3a) Thio-PAF assay, pooled human plasma; Examples 1-265 and 413-430 were tested here; read-out: pIC50 in the Lp-PLA2 human plasma assay (converted)
T2 construct: from tissue; host or cells: pooled human plasma
T2 sequence (Q13093 22-441): T1 sequence (Q13093 22-441)
In short: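 Endogenous Lp-PLA2 activity in frozen pooled human plasma measured as thiol release from 2-thio-PAF, detected by CPM fluorescence (ex 380/em 485). Compound preincubation 30 min; 2-min reaction in HEPES pH 7.4 buffer with NEM, stopped with 5% TFA, read 40 min later at room temperature; values as pIC50.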

Row | IC50 [1] | IC50 (Lp-PLA2 in human plasma) | SMILES
1 | ≤ 1 nM | ≤ 10000 nM | O=c1nc(OCc2ccc(Oc3ccc(C(F)(F)F)nc3)c(F)c2)cc2n1CC1CCCCN21 (centres unmarked) [Example E48, 3-((3-Fluoro-4-((6-(trifluoromethyl)pyridin-3-yl)oxy)benzyl)oxy)-6,7,8,9,9a,10-hexahydro-1H-pyrido[1′,2′:3,4]imidazo[1,2-c]pyrimidin-1-one]
2 | ≤ 100 nM | ≤ 10000 nM | Cn1cc(Oc2c(F)cc(COc3cc4n(c(=O)n3)C[C@@H]3COCN43)cc2F)cn1 [Example E144, (R)-6-((3,5-difluoro-4-((1-methyl-1H-pyrazol-4-yl)oxy)benzyl)oxy)-10,10a-dihydro-1H-oxazolo[3′,4′:3,4]imidazo[1,2-c]pyrimidin-8(3H)-one]
3 | ≤ 1 nM | ≤ 100 nM | N#Cc1cc(COc2cc3n(c(=O)n2)CC2CCCN32)ccc1Oc1ccc(Cl)c(C(F)(F)F)c1 (centres unmarked) [Example E77, 2-(4-Chloro-3-(trifluoromethyl)phenoxy)-5-(((1-oxo-1,6,7,8,8a,9-hexahydropyrrolo[1,2′:3,4]imidazo[1,2-c]pyrimidin-3-yl)oxy)methyl)benzonitrile]
4 | ≤ 100 nM | ≤ 10000 nM | O=c1nc(OCc2cc(F)cc(F)c2)cc2n1C[C@H]1CCCCN21 [Example E53, (R)-3-((3,5-Difluorobenzyl)oxy)-6,7,8,9,9a,10-hexahydro-1H-pyrido[1′,2′:3,4]imidazo[1,2-c] pyrimidin-1-one]
5 | ≤ 100 nM | ≤ 100 nM | O=c1nc(OCc2cc(F)c(F)c(F)c2)cc2n1C[C@@H]1CCOCN21 [Example E139, (S)-3-((3,4,5-trifluorobenzyl)oxy)-8,9,9a,10-tetrahydropyrimido[6′,1′:2,3]imidazo[1,5-c][1,3] oxazin-1(6H)-one]
6 | ≤ 100 nM | ≤ 100 nM | Cn1cc(Oc2c(F)cc(COc3cc4n(c(=O)n3)CC3COCCN43)cc2F)cn1 (centres unmarked) [Example E108, 7-((3,5-Difluoro-4-((1-methyl-1H-pyrazol-4-yl)oxy)benzyl)oxy)-3,4,11,11a-tetrahydro pyrimido[6′,1′:2,3]imidazo[5,1-c][1,4]oxazin-9(1H)-one]
7 | ≤ 100 nM | ≤ 10000 nM | Cc1ncc(Oc2c(F)cc(COc3cc4n(c(=O)n3)C[C@@H]3COCN43)cc2F)cn1 [Example E159, (R)-6-((3,5-difluoro-4-((2-methylpyrimidin-5-yl)oxy)benzyl)oxy)-10,10a-dihydro-1H-oxazolo[3′,4′:3,4]imidazo[1,2-c]pyrimidin-8(3H)-one]
8 | ≤ 1 nM | ≤ 100 nM | O=c1nc(OCc2cc(F)c(Oc3ccnc(C(F)(F)F)c3)c(F)c2)cc2n1C[C@H]1CCOCN21 [Example E135, (R)-3-((3,5-difluoro-4-((2-(trifluoromethyl)pyridin-4-yl)oxy)benzyl)oxy)-8,9,9a,10-tetrahydropyrimido[6′,1′:2,3]imidazo[1,5-c][1,3]oxazin-1(6H)-one]
9 | ≤ 100 nM | ≤ 100 nM | O=c1nc(OCc2cc(F)c(F)c(F)c2)cc2n1C[C@H]1CCCN21 [Example E70, (R)-3-((3,4,5-trifluorobenzyl)oxy)-7,8,8a,9-tetrahydropyrrolo[1′,2′:3,4]imidazo[1,2-c] pyrimidin-1(6H)-one]
10 | ≤ 1 nM | ≤ 100 nM | N#Cc1cc(COc2cc3n(c(=O)n2)CC2CCCCN32)ccc1Oc1ccc(Cl)c(F)c1 (centres unmarked) [Example E24, 2-(4-Chloro-3-fluorophenoxy)-5-(((1-oxo-6,7,8,9,9a,10-hexahydro-1H pyrido-[1′,2′:3,4]imidazo[1,2-c]pyrimidin-3-yl)oxy)methyl)benzonitrile]
11 | ≤ 1 nM | ≤ 100 nM | O=c1nc(OCc2cc(F)c(Oc3ccc(C(F)(F)F)nc3)c(F)c2)cc2n1C[C@H]1CCCN21 [Example E79, (R)-3-((3,5-difluoro-4-((6-(trifluoromethyl)pyridin-3-yl)oxy)benzyl)oxy)-7,8,8a,9-tetrahydro pyrrolo[1′,2′:3,4]imidazo[1,2-c]pyrimidin-1(6H)-one]
12 | ≤ 100 nM | ≤ 10000 nM | O=c1nc(OCc2cc(F)c(F)cc2F)cc2n1C[C@@H]1CCCCN21 [Example E59, (S)-3-((2,4,5-Trifluorobenzyl)oxy)-6,7,8,9,9a,10-hexahydro-1H-pyrido[1′,2′:3,4]imidazo[1,2-c]pyrimidin-1-one]
13 | ≤ 100 nM | ≤ 10000 nM | O=c1nc(OCc2cc(F)c(F)c(F)c2)cc2n1C[C@@H]1COCN21 [Example E153, (R)-6-((3,4,5-trifluorobenzyl)oxy)-10,10a-dihydro-1H-oxazolo[3′,4′:3,4]imidazo[1,2-c] pyrimidin-8(3H)-one]
14 | ≤ 1 nM | ≤ 100 nM | O=c1nc(OCc2cc(F)c(Oc3cnc(C(F)(F)F)nc3)c(F)c2)cc2n1CC1CCCN21 (centres unmarked) [Example E90, 3-((3,5-Difluoro-4-((2-(trifluoromethyl)pyrimidin-5-yl)oxy)benzyl)oxy)-7,8,8a,9-tetrahydro pyrrolo[1′,2′:3,4]imidazo[1,2-c]pyrimidin-1(6H)-one]
15 | ≤ 1 nM | ≤ 100 nM | O=c1nc(OCc2ccc(Oc3ccnc(C(F)(F)F)c3)c(F)c2)cc2n1CC1CCCCN21 (centres unmarked) [Example E44, 3-((3-Fluoro-4-((2-(trifluoromethyl)pyridin-4-yl)oxy)benzyl)oxy)-6,7,8,9,9a,10-hexahydro-1H-pyrido[1′,2′:3,4]imidazo[1,2-c]pyrimidin-1-one]
16 | ≤ 100 nM | ≤ 10000 nM | O=c1nc(OCc2cc(F)c(CCCF)c(F)c2)cc2n1CC1CCCN21 (centres unmarked) [Example E99, 3-((3,5-Difluoro-4-(3-fluoropropyl)benzyl)oxy)-7,8,8a,9-tetrahydropyrrolo[1′,2′:3,4] imidazo[1,2-c]pyrimidin-1(6H)-one]
17 | ≤ 100 nM | ≤ 10000 nM | O=c1nc(OCc2cc(F)c(F)c(F)c2)cc2n1CC1CCCN21 (centres unmarked) [Example E89, 3-((3,4,5-Trifluorobenzyl)oxy)-7,8,8a,9-tetrahydropyrrolo[1′,2′:3,4]imidazo[1,2-c] pyrimidin-1(6H)-one]
18 | ≤ 1 nM | ≤ 100 nM | N#Cc1cc(COc2cc3n(c(=O)n2)CC2CCCN32)ccc1Oc1cccc(F)c1 (centres unmarked) [Example E85, 2-(3-fluorophenoxy)-5-(((1-oxo-1,6,7,8,8a,9-hexahydropyrrolo[1,2′:3,4]imidazo[1,2-c]pyrimidin-3-yl)oxy)methyl)benzonitrile]
19 | 1 nM | ≤ 100 nM | CCn1cc(Oc2c(F)cc(COc3cc4n(c(=O)n3)C[C@H]3COCCN43)cc2F)cn1 [Example E115, (S)-7-((4-((1-ethyl-1H-pyrazol-4-yl)oxy)-3,5-difluorobenzyl)oxy)-3,4,11,11a-tetrahydropyrimido[6′,1′:2,3]imidazo[5,1-c][1,4]oxazin-9(1H)-one]
20 | ≤ 100 nM | ≤ 10000 nM | O=c1nc(OCc2cccc(F)c2)cc2n1C[C@H]1CCCN21 [Example E102, (R)-3-((3-fluorobenzyl)oxy)-7,8,8a,9-tetrahydropyrrolo[1′,2′:3,4]imidazo[1,2-c]pyrimidin-1(6H)-one]
21 | ≤ 1 nM | ≤ 100 nM | O=c1nc(OCc2cc(F)c(Oc3ccnc(C(F)(F)F)c3)c(F)c2)cc2n1C[C@@H]1COCCN21 [Example E119, (R)-7-((3,5-difluoro-4-((2-(trifluoromethyl)pyridin-4-yl)oxy)benzyl)oxy)-3,4, 11, 11a-tetra hydropyrimido[6′,1′:2,3]imidazo[5,1-c][1,4]oxazin-9(1H)-one]
22 | ≤ 1 nM | ≤ 100 nM | O=c1nc(OCc2cc(F)c(Oc3ccnc(C(F)(F)F)c3)c(F)c2)cc2n1CC1OCCCN21 (single isomer, unassigned) [Example E162, 7-((3,5-difluoro-4-((2-(trifluoromethyl)pyridin-4-yl)oxy)benzyl)oxy)-3,4,11,11a-tetrahydropyrimido[6′,1′:2,3]imidazo[5,1-b][1,3]oxazin-9(2H)-one]
23 | ≤ 100 nM | ≤ 100 nM | O=c1nc(OCc2cccc(F)c2)cc2n1C[C@H]1CCCCN21 [Example E52, (R)-3-((3-Fluorobenzyl)oxy)-6,7,8,9,9a,10-hexahydro-1H-pyrido[1′,2′:3,4]imidazo[1,2-c] pyrimidin-1-one]
24 | ≤ 100 nM | ≤ 100 nM | O=c1nc(OCc2cc(F)cc(F)c2)cc2n1C[C@H]1COCCN21 [Example E129, (S)-7-((3,5-difluorobenzyl)oxy)-3,4,11,11a-tetrahydropyrimido[6′,1′:2,3]imidazo[5,1-c][1,4] oxazin-9(1H)-one]
25 | 0.0398 nM | ≤ 100 nM | O=c1nc(OCc2cc(F)c(Oc3ccnc(C(F)(F)F)c3)c(F)c2)cc2n1CC1COCCN21 (centres unmarked) [Example E107, 7-((3,5-Difluoro-4-((2-(trifluoromethyl)pyridin-4-yl)oxy)benzyl)oxy)-3,4, 11, 11a-tetra hydropyrimido[6′,1′:2,3]imidazo[5,1-c][1,4]oxazin-9(1H)-one]

Reference: patent US11999746B2, “Compounds” (GlaxoSmithKline Intellectual Property Development Limited, priority 2014, dated 2024)
